Source: patent US20110150980A1, “CGRP ANALOG” (VasoGenix Pharmaceuticals, Inc., priority 2009, published 2011)
Like-named read-outs stand apart in the source and are kept apart here. Each block holds one substance with its values, some of them ahead of it. Bridges are numbered along the chain shown (N, C = ends). Where no end group is shown, it is not given here.

Assays:
patients = conditions: cited from earlier work
[1] = tested on: sedated Non Human Primate; test: IV infusion in the sedated Non Human Primate: blood pressure and heart rate (Example 1); format: in vivo; conditions: at the 28 ng dose
CRLR/RAMP1 receptor = molecular target: T1, CRLR/RAMP1 receptor (Homo sapiens, UniProt O60894+Q16602); test: CRE-luciferase assay in HEK293T cells transfected with CRLR and RAMP1; format: cell-based; conditions: for activity and potency in binding to the CGRP receptor, CRE-Luciferase assay: compared to h-α-CGRP and h-β-CGRP as controls
T1 construct: All of the full-length cDNAs were subcloned into pcDNA3.1 expression vectors; expressed in transfected cells; host or cells: HEK293T, transient calcium phosphate transfection, pcDNA3.1 vectors
T1 sequence (Q16602 23-461): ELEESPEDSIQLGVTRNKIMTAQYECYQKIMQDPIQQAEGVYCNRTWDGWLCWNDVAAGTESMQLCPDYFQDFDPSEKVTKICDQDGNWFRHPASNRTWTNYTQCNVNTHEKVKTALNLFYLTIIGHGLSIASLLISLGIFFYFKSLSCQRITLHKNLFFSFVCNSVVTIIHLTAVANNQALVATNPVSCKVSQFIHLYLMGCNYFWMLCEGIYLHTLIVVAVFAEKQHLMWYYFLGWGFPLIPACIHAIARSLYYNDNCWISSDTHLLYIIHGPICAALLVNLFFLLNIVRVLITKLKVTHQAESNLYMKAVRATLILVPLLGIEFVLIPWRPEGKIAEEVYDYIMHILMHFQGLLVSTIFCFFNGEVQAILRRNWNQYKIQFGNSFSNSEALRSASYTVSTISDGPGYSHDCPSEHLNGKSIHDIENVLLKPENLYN
T1 sequence (O60894 27-148): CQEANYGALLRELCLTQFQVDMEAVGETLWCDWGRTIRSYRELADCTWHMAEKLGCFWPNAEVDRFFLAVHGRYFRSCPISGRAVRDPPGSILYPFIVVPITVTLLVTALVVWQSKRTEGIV
Source text: The expression vectors for RAMP1, RAMP2, RAMP3, CRLR, CRE-Luc and SRE-Luc were constructed as previously described (McLatchie L. M., et al. (1998) Nature 393:333-339). Human CRLR, RAMP1, and RAMP2 full-length cDNAs were cloned by RT-PCR using RNA obtained from HEK293T cells and CRLR, RAMP1, and RAMP2-specific primers. Human RAMP3 full-length cDNAs were cloned by RT-PCR using RNA from human kidney and RAMP3 specific primers. All of the full-length cDNAs were subcloned into pcDNA3.1 expression vectors.
Human embryonic kidney 293T cells (HEK293T) were maintained in Dulbecco's modified Eagle's medium supplemented with 10% fetal calf serum, 2 mM glutamine, […], at 37° C. in a humidified atmosphere of 95% air and 5% CO2. Transient transfections were performed using calcium phosphate co-precipitation (Mellon P. L., et al. (1981) Cell 27:279-288). Cells in six-well plates or 100-mm Petri dishes were grown to 70% confluence and transfected with 0.1 μg of DNA for CRLR, 0.05 μg for RAMPs or 1 μg for CRE-Luc and SRE-Luc per cm^2. The total amount of DNA transfected in each condition was kept constant by adding empty pcDNA3.1 vector when needed. Twenty hours after transfection, the medium was replaced with fresh medium containing 5 mM sodium butyrate for 24 h and then replaced for an additional 24 h with fresh medium without sodium butyrate. All of the experiments were performed 72 h after transfection to allow correct glycosylation and cell surface targeting of CRLR and RAMPs.
After exposure to various concentrations of CGRP or the CGRP analogs, the cells were lysed and assayed for CRE- or SRE-luciferase activity using the luciferase assay system (Promega), and luminescence was measured using a 96-well luminometer.
The mechanism of action for CGRP at the CRLR/RAMP1 receptor is known to up-regulate cAMP through the gs pathway, and to a lesser extent [Ca^2+] through the gq pathway. […] It is the cAMP pathway that is the primary mechanism of action of CGRP for vasodilation, cardio/renoprotection and immunomodulation.

[2] = Anand et al.: short-term IV infusions (10 or 20 minutes) at 0.8, 3.2, or 16 ng/kg/min
[3] = Sekhar et al.: 8 ng/kg/min by IV infusion for 8 hours
[4] = Stephenson et al.: 600 ng/min, 2-8 hour infusions for two consecutive days

Substance: CGRP
hemodynamic effects (patients; [2]): beneficial hemodynamic effects such as decreased systemic vascular resistance and increase in cardiac output
tachycardia (patients; [2]): no tachycardia observed
renal blood flow and glomerular filtration (patients; Sekhar et al.: 8 ng/kg/min by IV infusion for 8 hours, during treatment): increased
hemodynamic effects (patients; [3]): beneficial hemodynamic effects such as decreased pulmonary and systemic arterial pressure, decreased vascular resistance and increased cardiac output
time after stopping infusion within which hemodynamic effects were lost (patients; [3]): ≤ 30 min
side effects of pulsed therapy (patients; [4]): unfavorable side effects of tachycardia and neurohumoral response were also observed
tolerability and hemodynamic functions, pulsed therapy (patients; [4]): well tolerated and was observed to improve hemodynamic functions such as left ventricular function
tolerability of continuous infusion therapy (patients; Stephenson et al.: 600 ng/min, 48-hour continuous IV-infusion): infusion was discontinued after 28 hours in 3 out of the 6 patients due to nausea, diarrhea, and/or severe facial flushing

potency in CRE-Luciferase assay (CRLR/RAMP1 receptor; at a concentration of 10^−10 molar): more potent
Substance: Cyc-ACDTATCVTHRLADLLSRSGGVVKSNFVPTNVGSKAF-NH2 (disulfide 2-7 (inferred)) [Peptide IX]
Heart rate (HR) effect [1]: increased heart rate but less than CGRP
activity and potency in binding to the CGRP receptor, CRE-Luciferase assay (CRLR/RAMP1 receptor): as equally active and potent as h-α-CGRP and h-β-CGRP

Substance: Cyc-ACDTATCVTHRLAGLLSRSGGVVKSNFVPTNVGSKAF-NH2 (disulfide 2-7 (inferred)) [Peptide III]
Heart rate (HR) effect [1]: increased heart rate but less than CGRP
activity and potency in binding to the CGRP receptor, CRE-Luciferase assay (CRLR/RAMP1 receptor): as equally active and potent as h-α-CGRP and h-β-CGRP
